Assay results from ChEMBL document CHEMBL3112396, “Synthesis of aminoalkyl-substituted coumarin derivatives as acetylcholinesterase inhibitors” (Bioorg Med Chem, 2014).
Calls of active or inactive are those of the source. The rule behind the calls is not given here.

Experiments:
Acetylcholinesterase = target: T1, Acetylcholinesterase (Mus musculus, UniProt P21836); assay: Inhibition of ICR mouse brain AChE using acetylthiocholine iodide as substrate incubated 10 mins prior to substrate addition measured after 10 mins by Ellman's method
T1 sequence (P21836 whole entry): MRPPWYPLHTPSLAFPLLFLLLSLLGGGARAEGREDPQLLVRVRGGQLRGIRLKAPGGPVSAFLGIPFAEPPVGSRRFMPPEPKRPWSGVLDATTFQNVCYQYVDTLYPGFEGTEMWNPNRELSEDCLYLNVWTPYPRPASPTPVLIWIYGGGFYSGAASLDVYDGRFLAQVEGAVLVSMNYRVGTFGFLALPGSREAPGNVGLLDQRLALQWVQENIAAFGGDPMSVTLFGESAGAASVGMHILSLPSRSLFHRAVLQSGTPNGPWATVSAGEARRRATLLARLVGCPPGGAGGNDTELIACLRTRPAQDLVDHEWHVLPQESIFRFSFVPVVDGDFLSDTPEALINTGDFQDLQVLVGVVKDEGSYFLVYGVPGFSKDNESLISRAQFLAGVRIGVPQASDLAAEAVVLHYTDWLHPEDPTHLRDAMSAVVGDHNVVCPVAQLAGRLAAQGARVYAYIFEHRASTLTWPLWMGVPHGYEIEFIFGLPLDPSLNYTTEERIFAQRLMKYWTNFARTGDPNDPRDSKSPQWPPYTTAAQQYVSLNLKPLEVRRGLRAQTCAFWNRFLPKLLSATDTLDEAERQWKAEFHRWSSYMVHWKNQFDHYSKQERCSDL

Mus musculus [1] = assay: Memory enhancing effect in ICR mouse assessed as reversal of scopolamine-induced amnesia by measuring step-through latencies at 1 mg/kg, po administered 1 hr prior to acquisition trial measured after 24 hrs by passive avoidance test relative to control; assay type: functional, organism-based; parameters: dose 1 mg/kg
Mus musculus [2] = assay: Memory enhancing effect in ICR mouse assessed as reversal of scopolamine-induced amnesia by measuring step-through latencies at 0.25 to 5 mg/kg, po administered 1 hr prior to acquisition trial measured after 24 hrs by passive avoidance test; assay type: functional, organism-based
Mus musculus [3] = assay: Memory enhancing effect in ICR mouse assessed as reversal of scopolamine-induced amnesia by measuring step-through latencies at 0.5 to 5 mg/kg, po after 1 hr by passive avoidance test; assay type: functional, organism-based
Mus musculus [4] = assay: Memory enhancing effect in ICR mouse assessed as reversal of scopolamine-induced amnesia by measuring step-through latencies at 2 mg/kg, po administered 1 hr prior to acquisition trial measured after 24 hrs by passive avoidance test relative to control; assay type: functional, organism-based; parameters: dose 2 mg/kg

SMILES | IC50 (Acetylcholinesterase) [µM] | other results
O=c1ccc2cc(OCCCN3CCCCC3)c(O)cc2o1 | 19.1 | 
CCN(CC)CCOc1cc2ccc(=O)oc2cc1O | 18.7 | 
CCN(CC)CCCOc1cc2ccc(=O)oc2cc1O | 30.5 | 
O=c1ccc2cc(OCCN3CCCCC3)c(O)cc2o1 | 12.2 | 
CC(C)NCCCOc1cc2ccc(=O)oc2cc1O | 27 | 
O=c1ccc2cc(OCCCN3CCCC3)c(O)cc2o1 | 2.87 | Activity (Mus musculus [1]): Active; Activity (Mus musculus [2]): Active; Activity (Mus musculus [3]): inactive
COc1ccc2c3c1O[C@H]1C[C@@H](O)C=C[C@@]31CCN(C)C2 |  | Activity (Mus musculus [1]): Active
O=c1ccc2cc(OCCN3CCCC3)c(O)cc2o1 | 6.85 | Activity (Mus musculus [2]): Active; Activity (Mus musculus [4]): Active; Activity (Mus musculus [3]): inactive
COc1cc2ccc(=O)oc2cc1O [SCOPOLETIN] | 476 | 
